Reference: US12599672B2, “KRAS proteolysis targeting chimeras” (PAQ Therapeutics Inc., priority 2023, dated 2026)

Tests used:
Type in all cases: cell-based
[1] = target: T1, KRAS G12D (Homo sapiens, UniProt P01116, G12D); experiment: KRAS G12D HiBit assay; details: AsPc-1-KRAS (G12D)-HiBit-KI cell, compound treatment for 24 hours, absolute DC50
T1 construct: AsPc-1-KRAS (G12D)-HiBit-KI cell (Pharmaron); host or cells: AsPc-1-KRAS (G12D)-HiBit-KI cells (HiBiT knock-in at the endogenous KRAS locus)
T1 sequence (P01116 1-188 isoform P01116-2 G12D): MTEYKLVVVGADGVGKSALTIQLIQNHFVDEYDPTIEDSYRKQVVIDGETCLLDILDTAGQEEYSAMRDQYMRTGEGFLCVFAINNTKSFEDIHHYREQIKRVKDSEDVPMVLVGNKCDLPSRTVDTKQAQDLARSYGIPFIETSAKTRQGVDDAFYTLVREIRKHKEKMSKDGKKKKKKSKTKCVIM
Method in brief: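 HiBiT luminescence, detected by adding lytic buffer, substrate and LgBiT protein, served as the KRAS G12D read-out. Compounds, serially diluted 3-fold over 10 points from 0.3 mM DMSO stock, were on cells for 24 h; percent inhibition normalized to cells given 0.1% DMSO only.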

[2] = target: T2, KRAS G12V (Homo sapiens, UniProt P01116, G12V); experiment: KRAS G12V HiBit assay; details: SW620-KRAS (G12V)-HiBit-KI cells, compound treatment for 24 hours, class symbols
T2 construct: SW620-KRAS (G12V)-HiBit-KI cell (Pharmaron); host or cells: SW620-KRAS (G12V)-HiBit-KI cells (HiBiT knock-in at the endogenous KRAS locus)
T2 sequence (P01116 1-188 isoform P01116-2 G12V): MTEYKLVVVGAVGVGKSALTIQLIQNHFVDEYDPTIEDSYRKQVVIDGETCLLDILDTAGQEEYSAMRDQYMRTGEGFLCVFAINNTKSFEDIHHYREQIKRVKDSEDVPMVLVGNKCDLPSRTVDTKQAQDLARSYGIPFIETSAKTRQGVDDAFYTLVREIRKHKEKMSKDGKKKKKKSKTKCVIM
Method in brief: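 Luminescence from lytic Nano-Glo HiBiT detection with LgBiT read KRAS G12V levels after 24 h compound exposure. Dilutions were 10-point, 3-fold, from a 0.3 mM DMSO stock. Degradation activity was normalised to cells given 0.1% DMSO alone.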

[3] = target: T3, KRAS (Homo sapiens, UniProt P01116); experiment: KRASamp MSD assay; details: KE39 (KRAS amplified) cells, treated with test compounds for 24 hr, MSD readout of KRAS degradation
T3 construct: endogenous in cells; host or cells: KE39 (KRAS amplified) cells
T3 sequence (P01116 1-188 isoform P01116-2): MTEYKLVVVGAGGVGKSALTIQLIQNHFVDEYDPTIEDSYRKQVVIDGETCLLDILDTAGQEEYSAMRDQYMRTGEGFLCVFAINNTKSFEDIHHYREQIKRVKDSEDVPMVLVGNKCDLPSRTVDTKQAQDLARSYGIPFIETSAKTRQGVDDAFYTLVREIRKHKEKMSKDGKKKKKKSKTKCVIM
Method in brief: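 Degradation DC50 derived by curve fitting, with KRAS levels quantified by MSD electrochemiluminescence (capture/detection antibodies, recombinant WT KRAS standard). Lysates prepared from KE39 cells (KRAS amplified) exposed to test compounds for 24 hr.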

[4] = numeric bounds given in place of class symbols

| Structure (SMILES) | DC50 [1, 4] [nM] | DC50 [2] [nM] | DC50 [3] [nM] | DC50 ([1]; class symbols) [nM] |
| --- | --- | --- | --- | --- |
| CCc1c(F)ccc2cc(O)cc(-c3ncc4c(N5CCC[C@@](C)(O)C5)nc(OC[C@]56CCCN5[C@H](COC(=O)N5CCC(c7cccc8c7n(C)c(=O)n8C7CCC(=O)NC7=O)CC5)CC6)nc4c3F)c12 (stereo partly drawn) [Compound 310, ((3S,7aR)-7a-(((7-(8-ethyl-7-fluoro-3-hydroxynaphthalen-1-yl)-8-fluoro-4-((R)-3-hydroxy-3-methylpiperidin-1-yl)pyrido[4,3-d]pyrimidin-2-yl)oxy)methyl)hexahydro-1H-pyrrolizin-3-yl)methyl 4-(1-(2,6-dioxopiperidin-3-yl)-3-methyl-2-oxo-2,3-dihydro-1H-benzo[d]imidazol-4-yl)piperidine-1-carboxylate] | > 100 | > 100 | 1 to 10 | – |
| CCc1c(F)ccc2cc(O)cc(-c3ncc4c(N5CCC[C@@](C)(O)C5)nc(OC[C@]56CCCN5[C@H](COC(=O)NC5CCN(c7cccc8c7n(C)c(=O)n8C7CCC(=O)NC7=O)CC5)CC6)nc4c3F)c12 (stereo partly drawn) [Compound 311, ((3S,7aR)-7a-(((7-(8-ethyl-7-fluoro-3-hydroxynaphthalen-1-yl)-8-fluoro-4-((R)-3-hydroxy-3-methylpiperidin-1-yl)pyrido[4,3-d]pyrimidin-2-yl)oxy)methyl)hexahydro-1H-pyrrolizin-3-yl)methyl (1-(1-(2,6-dioxopiperidin-3-yl)-3-methyl-2-oxo-2,3-dihydro-1H-benzo[d]imidazol-4-yl)piperidin-4-yl)carbamate] | – | > 100 | ≥ 10 | < 100 |
| CCc1c(F)ccc2cc(O)cc(-c3ncc4c(N5CCC[C@@](C)(O)C5)nc(OC[C@]56CCCN5[C@H](COC(=O)NC5CCCN(c7cccc8c7n(C)c(=O)n8C7CCC(=O)NC7=O)C5)CC6)nc4c3F)c12 (stereo partly drawn) [Compound 312, ((3S,7aR)-7a-(((7-(8-ethyl-7-fluoro-3-hydroxynaphthalen-1-yl)-8-fluoro-4-((R)-3-hydroxy-3-methylpiperidin-1-yl)pyrido[4,3-d]pyrimidin-2-yl)oxy)methyl)hexahydro-1H-pyrrolizin-3-yl)methyl (1-(1-(2,6-dioxopiperidin-3-yl)-3-methyl-2-oxo-2,3-dihydro-1H-benzo[d]imidazol-4-yl)piperidin-3-yl)carbamate] | > 100 | 10 to 100 | ≥ 10 | – |
| CCc1c(F)ccc2cc(O)cc(-c3ncc4c(N5CCC[C@@](C)(O)C5)nc(OC[C@@]56CCCN5[C@@H](COC(=O)N5CCC(COc7ccc8c(c7)n(C)c(=O)n8C7CCC(=O)NC7=O)CC5)CC6)nc4c3F)c12 (stereo partly drawn) [Compound 314, ((3R,7aS)-7a-(((7-(8-ethyl-7-fluoro-3-hydroxynaphthalen-1-yl)-8-fluoro-4-((R)-3-hydroxy-3-methylpiperidin-1-yl)pyrido[4,3-d]pyrimidin-2-yl)oxy)methyl)hexahydro-1H-pyrrolizin-3-yl)methyl 4-(((1-(2,6-dioxopiperidin-3-yl)-3-methyl-2-oxo-2,3-dihydro-1H-benzo[d]imidazol-5-yl)oxy)methyl)piperidine-1-carboxylate] | > 100 | > 100 | ≥ 10 | – |
| CCc1c(F)ccc2cc(O)cc(-c3ncc4c(N5CCC[C@@](C)(O)C5)nc(OC[C@@]56CCCN5[C@@H](COC(=O)N5CCC(CCOc7ccc8c(c7)n(C)c(=O)n8C7CCC(=O)NC7=O)CC5)CC6)nc4c3F)c12 (stereo partly drawn) [Compound 315, ((3R,7aS)-7a-(((7-(8-ethyl-7-fluoro-3-hydroxynaphthalen-1-yl)-8-fluoro-4-((R)-3-hydroxy-3-methylpiperidin-1-yl)pyrido[4,3-d]pyrimidin-2-yl)oxy)methyl)hexahydro-1H-pyrrolizin-3-yl)methyl 4-(2-((1-(2,6-dioxopiperidin-3-yl)-3-methyl-2-oxo-2,3-dihydro-1H-benzo[d]imidazol-5-yl)oxy)ethyl)piperidine-1-carboxylate] | > 100 | > 100 | ≥ 10 | – |
| CCc1c(F)ccc2cc(O)cc(-c3ncc4c(N5CCC[C@@](C)(O)C5)nc(OC[C@@]56CCCN5[C@@H](COC(=O)N5CCC(CCCOc7ccc8c(c7)n(C)c(=O)n8C7CCC(=O)NC7=O)CC5)CC6)nc4c3F)c12 (stereo partly drawn) [Compound 316, ((3R,7aS)-7a-(((7-(8-ethyl-7-fluoro-3-hydroxynaphthalen-1-yl)-8-fluoro-4-((R)-3-hydroxy-3-methylpiperidin-1-yl)pyrido[4,3-d]pyrimidin-2-yl)oxy)methyl)hexahydro-1H-pyrrolizin-3-yl)methyl 4-(3-((1-(2,6-dioxopiperidin-3-yl)-3-methyl-2-oxo-2,3-dihydro-1H-benzo[d]imidazol-5-yl)oxy)propyl)piperidine-1-carboxylate] | > 100 | > 100 | ≥ 10 | – |

Further lines, results first:

| DC50 [1, 4] [nM] | DC50 [2] [nM] | DC50 [3] [nM] | DC50 ([1]; class symbols) [nM] | Structure (SMILES) |
| --- | --- | --- | --- | --- |
| – | > 100 | ≥ 10 | < 100 | CCc1c(F)ccc2cc(O)cc(-c3ncc4c(N5CCC[C@@](C)(O)C5)nc(OC[C@@]56CCCN5[C@@H](COC(=O)N5CCC(CCCCOc7ccc8c(c7)n(C)c(=O)n8C7CCC(=O)NC7=O)CC5)CC6)nc4c3F)c12 (stereo partly drawn) [Compound 317, ((3R,7aS)-7a-(((7-(8-ethyl-7-fluoro-3-hydroxynaphthalen-1-yl)-8-fluoro-4-((R)-3-hydroxy-3-methylpiperidin-1-yl)pyrido[4,3-d]pyrimidin-2-yl)oxy)methyl)hexahydro-1H-pyrrolizin-3-yl)methyl 4-(4-((1-(2,6-dioxopiperidin-3-yl)-3-methyl-2-oxo-2,3-dihydro-1H-benzo[d]imidazol-5-yl)oxy)butyl)piperidine-1-carboxylate] |
| > 100 | > 100 | ≥ 10 | – | C#Cc1c(F)ccc2cc(O)cc(-c3ncc4c(N5CCC[C@@](C)(O)C5)nc(OC[C@@]56CCCN5[C@H](COC(=O)N5CCC7(CC5)CCN7C5CCN(c7ccc8c(c7)n(C)c(=O)n8C7CCC(=O)NC7=O)CC5)CC6)nc4c3F)c12 (stereo partly drawn) [Compound 320, ((3S,7aS)-7a-(((7-(8-ethynyl-7-fluoro-3-hydroxynaphthalen-1-yl)-8-fluoro-4-((R)-3-hydroxy-3-methylpiperidin-1-yl)pyrido[4,3-d]pyrimidin-2-yl)oxy)methyl)hexahydro-1H-pyrrolizin-3-yl)methyl 1-(1-(1-(2,6-dioxopiperidin-3-yl)-3-methyl-2-oxo-2,3-dihydro-1H-benzo[d]imidazol-5-yl)piperidin-4-yl)-1,7-diazaspiro[3.5]nonane-7-carboxylate] |
| – | < 10 | 1 to 10 | < 100 | C#Cc1c(F)ccc2cc(O)cc(-c3ncc4c(N5CCC[C@@](C)(O)C5)nc(OC[C@@]56CCCN5[C@H](COC(=O)N5CCC7(CCC(CN8CCC(c9ccc%10c(c9)n(C)c(=O)n%10C9CCC(=O)NC9=O)CC8)CC7)CC5)CC6)nc4c3F)c12 (stereo partly drawn) [Compound 321, ((3S,7aS)-7a-(((7-(8-ethynyl-7-fluoro-3-hydroxynaphthalen-1-yl)-8-fluoro-4-((R)-3-hydroxy-3-methylpiperidin-1-yl)pyrido[4,3-d]pyrimidin-2-yl)oxy)methyl)hexahydro-1H-pyrrolizin-3-yl)methyl 9-((4-(1-(2,6-dioxopiperidin-3-yl)-3-methyl-2-oxo-2,3-dihydro-1H-benzo[d]imidazol-5-yl)piperidin-1-yl)methyl)-3-azaspiro[5.5]undecane-3-carboxylate] |
